One series concerns A-498 cells. Nature of the series: IFN/cytokine gene expression (qRT-PCR) and secretion (MSD) in A-498 cells. The class given is cell-based, human. Conditions: 2 μM, 24 h, vs DMSO. As for the experimental part: RNA was isolated using the PureLink kit (#12183018A; Thermo Fisher) and DNA‐binding columns (Rneasy plus kit, #74134; Qiagen) and/or Dnase treatment (#12185010; Thermo Fisher). After quantification using NanoDrop, 50 ng·μL^−1 RNA was used for cDNA synthesis with SuperScript IV VILO Master Mix (#11756050; Thermo Fisher). Quantitative RT‐PCR was run with diluted cDNA (1 : 25 or 1 : 12.5), PowerUp SYBR Green Master Mix (#A25741; Thermo Fisher), and 200 nM primers (see Table S3) on a CFX Connect RT‐PCR system (BioRad, Hercules, CA, USA). Data were analyzed using the ΔΔCT method.
Cell culture medium was centrifuged at 300 g for 10 min at 4 °C and supernatant stored at −80 °C. Mouse blood was collected at termination in K2‐EDTA tubes on ice, centrifuged at 1270 g for 10 min at 4 °C, and plasma was stored at −80 °C. Cytokine levels were quantified using Mesoscale Discovery (MSD) assays: human CCL5 (#F21ZN), CXCL10 (#K151UFK), IFNβ (#K151VIK); mouse CCL5 (#K152A2K) and CXCL10 (#K152UFK). Low concentrations of human IFNβ were determined using High‐Sensitivity IFNβ ELISA (#41415‐1; PBL Assay Science, Piscataway, NJ, USA). CCL5/CXCL10 levels in some experiments were quantified using R&D Systems (Minneapolis, MN, USA) ELISAs: human CCL5 (#DY278) or CXCL10 (#DY266); mouse CCL5 (#DY478).

The nature of a further series: In vivo mouse PK. As for the experimental part:
Experiments were conducted at Aragen Life Sciences Ltd. (Hyderabad, India) according to internal standard procedures.

Another series relates to VPS34 activity. Kind of series: PD: GFP-2xFYVE puncta in H1299 tumors (immunohistochemistry). Conditions: 9 or 29 mg·kg^−1 oral. The class given is in vivo, mouse. On the procedure: The study was performed by Truly Translational AB (Lund, Sweden) following Swedish legislations and approved by the ethical committee Malmö/Lunds djurförsöksetiska nämnd (M120‐15). Animals were housed 5/cage in polysulfone IVC cages at a constant temperature with 12 h light‐dark cycles and free access to food, tap water, and cage enrichment. Animals were allowed to acclimatize to the housing conditions for at least a week before the start of experiments. Female 8‐week‐old NOD.Cg‐Prkdc^ scid Il2rg^ tm1Sug /JicTac (CIEA‐NOG®) mice (supplied by Taconic Biosciences, Rensselaer, NY, USA; n = 42) were implanted subcutaneously with 1.75 × 10^6 H1299‐GFP2xFYVE cells in serum‐free RPMI in 50% Matrigel. When tumors reached 300–400 mm^3 mice were randomized and dosed with 9 or 29 mg·kg^−1 SB02024 or vehicle (PEG 200 (98%)/Polysorbate (2%)). At indicated time points after dosing, blood samples were taken by heart puncture and tumors were removed. Pharmacokinetic (PK) analysis (plasma and tumor samples) was performed by Q&Q Labs (Gothenburg, Sweden). Plasma was precipitated with acetonitrile, and after centrifugation, the soluble material was recovered. […] SB02024 levels were determined using UHPLC‐QQQ: Agilent 6460 (LC–MS/MS; Agilent Technologies, Santa Clara, CA, USA). […] Each TMA block was sectioned and analyzed at eight equally spaced levels. […]

The next series concerns the target VPS34 (Homo sapiens, UniProt Q8NEB9). Nature of the series: biochemical. On the procedure: Compound dilution series was prepared in DMSO and further diluted to 4× final assay concentration in assay buffer (Buffer Q #PV5125, Thermo Fisher, supplemented with 2 mM DTT and 2 mM MnCl2). 2.5 μL of the diluted compounds were added to a 384‐well assay plate followed by 2.5 μL of 16.5 nM VPS34 enzyme (#PV5126; Thermo Fisher) and incubated for 15 min. Five microliters of substrate mix (20 μM ATP #PV3227 and 200 μM PI : PS substrate #PV5122; Thermo Fisher) in assay buffer was added, mixed, and incubated for 1 h. Five microliters of stop‐detection mix (Adapta kinase assay #PV5099; Thermo Fisher) were added, mixed, and incubated for 30 min and read with Artemis microplate reader. Percent remaining activity as compared to DMSO‐treated control samples was calculated and IC50 values were generated using […] PRISM (GraphPad Software, Inc., San Diego, CA, USA). The NanoBRET assay was performed using the manufacturer's protocol. Briefly, 293T cells were transfected with the Kinase‐NanoLuc® Fusion Vector DNA overnight. The next day cells were treated with compound and the NanoBRET tracer reagent and then read out measuring donor and acceptor emission wavelength (450 and 610 nm).

The structures appear in SMILES notation. pIC50: −log10 of the molar value.

Chain of VPS34 (Q8NEB9 whole entry): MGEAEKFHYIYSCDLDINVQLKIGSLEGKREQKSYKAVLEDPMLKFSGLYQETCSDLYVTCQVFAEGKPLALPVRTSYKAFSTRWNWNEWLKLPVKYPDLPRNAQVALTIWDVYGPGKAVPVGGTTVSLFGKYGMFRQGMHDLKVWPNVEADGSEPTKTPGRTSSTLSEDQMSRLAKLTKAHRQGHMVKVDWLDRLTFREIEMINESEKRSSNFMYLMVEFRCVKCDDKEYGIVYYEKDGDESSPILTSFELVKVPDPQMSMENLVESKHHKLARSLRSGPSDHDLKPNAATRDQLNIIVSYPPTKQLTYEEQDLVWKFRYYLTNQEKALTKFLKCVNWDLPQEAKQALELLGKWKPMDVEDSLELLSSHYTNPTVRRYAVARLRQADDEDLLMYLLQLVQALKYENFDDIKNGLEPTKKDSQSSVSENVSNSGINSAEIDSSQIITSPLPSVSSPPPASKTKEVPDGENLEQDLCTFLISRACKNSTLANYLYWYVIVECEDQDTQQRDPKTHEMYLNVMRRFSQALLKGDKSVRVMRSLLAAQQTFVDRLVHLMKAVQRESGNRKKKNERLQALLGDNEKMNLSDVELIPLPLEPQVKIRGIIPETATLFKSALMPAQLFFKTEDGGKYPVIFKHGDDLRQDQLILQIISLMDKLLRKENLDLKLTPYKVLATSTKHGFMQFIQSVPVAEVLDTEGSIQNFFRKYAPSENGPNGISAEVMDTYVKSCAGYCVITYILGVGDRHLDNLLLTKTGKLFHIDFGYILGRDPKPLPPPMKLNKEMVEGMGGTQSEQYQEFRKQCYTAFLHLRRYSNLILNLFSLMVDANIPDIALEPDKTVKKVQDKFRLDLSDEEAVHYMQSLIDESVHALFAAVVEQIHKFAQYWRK

As to `C[C@@H]1COCCN1c1cc(N2CCCC[C@@H]2C(F)(F)F)[nH]c(=O)c1` [SB02024], the “transcription of IFNB1 and ISGs IRF1, IRF7, IRF9” value in the series on A-498 cells was “significantly increased”. Further, in “In vivo mouse PK” (in vivo mouse PK), the distribution volume (Vd) turned out to be 2.53 L/kg and the clearance worked out at 26 mL/min/kg. The half-life in “In vivo mouse PK” (in vivo mouse PK, read-out: t½ (converted)) is 1.15 h. In addition, the “in vitro and in vivo clearance (in words)” value in “In vivo mouse PK” (mouse, in vivo) is on record as “low”. Also, the bioavailability in the series “In vivo mouse PK” (po, in vivo mouse PK) was 96%. Besides, the “duration of inhibition of GFP-2xFYVE puncta formation” value in the series with VPS34 activity is listed as “about 8 h”. Besides, the “GFP-2xFYVE puncta (autophagosome and endosome) formation in H1299 tumors” value in the series on VPS34 activity (after 2 h) is given as “inhibited”. On VPS34, this compound gave a pIC50 of 8.30.

The values are drawn from paper PMC11306511, “Combining VPS34 inhibitors with STING agonists enhances type I interferon signaling and anti‐tumor efficacy” (Molecular Oncology, 2024).
